Test results published in ChEMBL document CHEMBL3797052 (Eur J Med Chem, 2016).

What was measured:
Malme-3M [1] = test: Antiproliferative activity against human MALME-3M cells assessed as growth inhibition after 48 hrs by sulforhodamine B assay; assay type: functional
[2] = Antiproliferative activity against human TK10 cells assessed as growth inhibition after 48 hrs by sulforhodamine B assay; assay type: functional; details: TK-10, 48 h; for CC50: read-out: LC50 (the source's name)
Malme-3M [3] = test: Antiproliferative activity against human MALME-3M cells assessed as cell growth at 10^-6 M after 48 hrs by sulforhodamine B assay; assay type: functional; details: read-out: Activity
[4] = molecular target: RAF proto-oncogene serine/threonine-protein kinase (Homo sapiens, UniProt P04049); test: Inhibition of human C-RAF measured after 40 mins by scintillation counting
RAF proto-oncogene serine/threonine-protein kinase, sequence (P04049 whole entry): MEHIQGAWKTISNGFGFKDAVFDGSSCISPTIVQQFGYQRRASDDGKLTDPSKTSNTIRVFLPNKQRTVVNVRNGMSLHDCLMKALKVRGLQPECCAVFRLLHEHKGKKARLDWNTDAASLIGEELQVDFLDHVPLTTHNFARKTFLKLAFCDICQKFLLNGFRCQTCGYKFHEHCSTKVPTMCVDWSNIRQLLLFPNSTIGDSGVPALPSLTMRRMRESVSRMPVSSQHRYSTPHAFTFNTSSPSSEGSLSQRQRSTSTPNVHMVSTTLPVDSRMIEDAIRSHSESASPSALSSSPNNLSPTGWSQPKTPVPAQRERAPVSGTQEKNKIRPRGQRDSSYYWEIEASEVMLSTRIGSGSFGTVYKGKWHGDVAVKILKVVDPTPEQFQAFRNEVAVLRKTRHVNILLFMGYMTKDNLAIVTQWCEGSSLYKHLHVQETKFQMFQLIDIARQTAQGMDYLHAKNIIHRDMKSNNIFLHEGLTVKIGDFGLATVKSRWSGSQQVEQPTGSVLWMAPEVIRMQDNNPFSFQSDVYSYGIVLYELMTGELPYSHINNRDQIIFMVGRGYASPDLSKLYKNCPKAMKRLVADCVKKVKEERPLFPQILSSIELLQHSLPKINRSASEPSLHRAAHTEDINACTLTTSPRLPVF

[5] = Antiproliferative activity against human SF268 cells assessed as cell growth at 10^-8 M after 48 hrs by sulforhodamine B assay; assay type: functional; details: SF-268, 48 h, read-out: Activity
NCI-H226 = test: Antiproliferative activity against human NCI-H226 cells assessed as growth inhibition after 48 hrs by sulforhodamine B assay; assay type: functional; details: NCI-H226, 48 h; for CC50: read-out: LC50 (the source's name)
[6] = Antiproliferative activity against human OVCAR3 cells assessed as cell growth at 10^-4 M after 48 hrs by sulforhodamine B assay; assay type: functional; details: OVCAR-3, 48 h, read-out: Activity
SK-MEL-5 = test: Antiproliferative activity against human SK-MEL-5 cells assessed as cell growth at 10^-7 M after 48 hrs by sulforhodamine B assay; assay type: functional; details: SK-MEL-5, 48 h, read-out: Activity
[7] = Antiproliferative activity against human SNB19 cells assessed as cell growth at 10^-8 M after 48 hrs by sulforhodamine B assay; assay type: functional; details: SNB-19, 48 h, read-out: Activity
T47D [8] = test: Antiproliferative activity against human T47D cells assessed as growth inhibition after 48 hrs by sulforhodamine B assay; assay type: functional; details: for CC50: read-out: LC50 (the source's name)
MDA-MB-468 = test: Antiproliferative activity against human MDA-MB-468 cells assessed as growth inhibition after 48 hrs by sulforhodamine B assay; assay type: functional; details: MDA-MB-468, 48 h; for CC50: read-out: LC50 (the source's name)
[9] = Antiproliferative activity against human TK10 cells assessed as cell growth at 10^-6 M after 48 hrs by sulforhodamine B assay; assay type: functional; details: TK-10, 48 h, read-out: Activity
[10] = Antiproliferative activity against human HOP62 cells assessed as cell growth at 10^-6 M after 48 hrs by sulforhodamine B assay; assay type: functional; details: HOP-62, 48 h, read-out: Activity
[11] = Antiproliferative activity against human SNB75 cells assessed as growth inhibition after 48 hrs by sulforhodamine B assay; assay type: functional; details: SNB-75, 48 h; for CC50: read-out: LC50 (the source's name)
786-0 = test: Antiproliferative activity against human 786-0 cells assessed as cell growth at 10^-7 M after 48 hrs by sulforhodamine B assay; assay type: functional; details: 786-0, 48 h, read-out: Activity
[12] = Antiproliferative activity against human OVCAR5 cells assessed as cell growth at 10^-6 M after 48 hrs by sulforhodamine B assay; assay type: functional; details: OVCAR-5, 48 h, read-out: Activity
[13] = Antiproliferative activity against human HOP92 cells assessed as cell growth at 10^-6 M after 48 hrs by sulforhodamine B assay; assay type: functional; details: HOP-92, 48 h, read-out: Activity
HT-29 = test: Antiproliferative activity against human HT-29 cells assessed as cell growth at 10^-6 M after 48 hrs by sulforhodamine B assay; assay type: functional; details: HT-29, 48 h, read-out: Activity
[14] = Antiproliferative activity against human HOP92 cells assessed as cell growth at 10^-4 M after 48 hrs by sulforhodamine B assay; assay type: functional; details: HOP-92, 48 h, read-out: Activity
CCRF-CEM = test: Antiproliferative activity against human CCRF-CEM cells assessed as cell growth at 10^-7 M after 48 hrs by sulforhodamine B assay; assay type: functional; details: read-out: Activity
KM12 [15] = test: Antiproliferative activity against human KM12 cells assessed as cell growth at 10^-7 M after 48 hrs by sulforhodamine B assay; assay type: functional; details: KM12, 48 h, read-out: Activity
[16] = Antiproliferative activity against human RPMI8226 cells assessed as cell growth at 10^-4 M after 48 hrs by sulforhodamine B assay; assay type: functional; details: RPMI-8226, 48 h, read-out: Activity
T47D [17] = test: Antiproliferative activity against human T47D cells assessed as cell growth at 10^-6 M after 48 hrs by sulforhodamine B assay; assay type: functional; details: read-out: Activity
ACHN = test: Antiproliferative activity against human ACHN cells assessed as cell growth at 10^-4 M after 48 hrs by sulforhodamine B assay; assay type: functional; details: read-out: Activity
KM12 [18] = test: Antiproliferative activity against human KM12 cells assessed as cell growth at 10^-8 M after 48 hrs by sulforhodamine B assay; assay type: functional; details: KM12, 48 h, read-out: Activity
K562 [19] = test: Antiproliferative activity against human K562 cells assessed as cell growth at 10^-6 M after 48 hrs by sulforhodamine B assay; assay type: functional; details: K562, 48 h, read-out: Activity
[20] = Antiproliferative activity against human SW620 cells assessed as cell growth at […] M after 48 hrs by sulforhodamine B assay; assay type: functional; details: SW-620, 48 h, read-out: Activity
A498 = test: Antiproliferative activity against human A498 cells assessed as growth inhibition after 48 hrs by sulforhodamine B assay; assay type: functional; details: A498, 48 h
M14 = test: Antiproliferative activity against human M14 cells assessed as cell growth at 10^-6 M after 48 hrs by sulforhodamine B assay; assay type: functional; details: M14, 48 h, read-out: Activity
K562 [21] = test: Antiproliferative activity against human K562 cells assessed as growth inhibition after 48 hrs by sulforhodamine B assay; assay type: functional; details: K562, 48 h; for CC50: read-out: LC50 (the source's name)
[22] = Antiproliferative activity against human HL-60(TB) cells assessed as cell growth at 10^-7 M after 48 hrs by sulforhodamine B assay; assay type: functional; details: HL-60, 48 h, read-out: Activity
[23] = Antiproliferative activity against human COLO205 cells assessed as cell growth at 10^-7 M after 48 hrs by sulforhodamine B assay; assay type: functional; details: COLO 205, 48 h, read-out: Activity
SK-MEL-2 = test: Antiproliferative activity against human SK-MEL-2 cells assessed as cell growth at 10^-4 M after 48 hrs by sulforhodamine B assay; assay type: functional; details: SK-MEL-2, 48 h, read-out: Activity
[24] = Antiproliferative activity against human OVCAR4 cells assessed as cell growth at 10^-8 M after 48 hrs by sulforhodamine B assay; assay type: functional; details: OVCAR-4, 48 h, read-out: Activity
[25] = Antiproliferative activity against human HCT116 cells assessed as cell growth at 10^-4 M after 48 hrs by sulforhodamine B assay; assay type: functional; details: HCT-116, 48 h, read-out: Activity
SK-MEL-28 = test: Antiproliferative activity against human SK-MEL-28 cells assessed as cell growth at 10^-4 M after 48 hrs by sulforhodamine B assay; assay type: functional; details: SK-MEL-28, 48 h, read-out: Activity

With `CNC(=O)c1cc(Oc2ccc3nc(NC(=O)c4cc(C(F)(F)F)cc(C(F)(F)F)c4)sc3c2)ccn1` the GI50 (Malme-3M [1]) was 2.03 µM, the TGI (Malme-3M [1]) was 6.65 µM and the CC50 (Malme-3M [1]; read-out: LC50 (the source's name)) was > 100 µM. For the same compound, the GI50 [2] was 3.37 µM, the TGI [2] was 13.3 µM and the CC50 [2] was 74.9 µM. For the same compound, the growth at 1 µM (Malme-3M [3]) was 80%, the IC50 [4] was 0.695 µM and the growth at 0.01 µM [5] was 93%. The GI50 (NCI-H226) was 4.15 µM, the TGI (NCI-H226) was 17.4 µM and the CC50 (NCI-H226) was 76.2 µM. For the same compound, the growth at 100 µM [6] was -79%, the growth at 0.1 µM (SK-MEL-5) was 96% and the growth at 0.01 µM [7] was 98%. The GI50 (T47D [8]) was 3.04 µM, the TGI (T47D [8]) was 9.18 µM and the CC50 (T47D [8]) was > 100 µM. The GI50 (MDA-MB-468) was 3.18 µM, the TGI (MDA-MB-468) was 14.2 µM and the CC50 (MDA-MB-468) was > 100 µM. For the same compound, the growth at 1 µM [9] was 97%, the growth at 1 µM [10] was 103% and the GI50 [11] was 3.13 µM. The TGI [11] was 14.8 µM, the CC50 [11] was 96.5 µM and the growth at 0.1 µM (786-0) was 90%. The growth at 1 µM [12] was 80%, the growth at 1 µM [13] was 68% and the growth at 1 µM (HT-29) was 100%. It also gave a growth at 100 µM [14] of -41%, a growth at 0.1 µM (CCRF-CEM) of 108% and a growth at 0.1 µM (KM12 [15]) of 99%. For the same compound, the growth at 100 µM [16] was 15%, the growth at 1 µM (T47D [17]) was 100% and the growth at 100 µM (ACHN) was -82%. The growth at 0.01 µM (KM12 [18]) was 101%, the growth at 1 µM (K562 [19]) was 102% and the growth at 0.01 µM [20] was 97%. The GI50 (A498) was 1.45 µM, the LC50 (concentration killing 50% of cells) (A498) was 30.9 µM and the TGI (A498) was 4.51 µM. The growth at 1 µM (M14) was 94%, the GI50 (K562 [21]) was 3.53 µM and the TGI (K562 [21]) was > 100 µM. For the same compound, the CC50 (K562 [21]) was > 100 µM, the growth at 0.1 µM [22] was 97% and the growth at 0.1 µM [23] was 91%. It also gave a growth at 100 µM (SK-MEL-2) of -53%, a growth at 0.01 µM [24] of 95% and a growth at 100 µM [25] of -84%. For the same compound, the growth at 100 µM (SK-MEL-28) was -13%.
For `CNC(=O)c1cc(Oc2ccc3nc(NC(=O)Nc4ccc(Cl)c(C(F)(F)F)c4)sc3c2)ccn1`, the GI50 (Malme-3M [1]) was 1.61 µM, the TGI (Malme-3M [1]) was 3.63 µM and the GI50 [2] was 2.29 µM. The TGI [2] was 4.62 µM, the CC50 [2] was 9.32 µM and the growth at 1 µM (Malme-3M [3]) was 79%. For the same compound, the IC50 [4] was 0.111 µM, the growth at 0.01 µM [5] was 107% and the GI50 (NCI-H226) was 2.69 µM. The TGI (NCI-H226) was 7.47 µM, the CC50 (NCI-H226) was > 100 µM and the growth at 100 µM [6] was -14%. For the same compound, the growth at 0.1 µM (SK-MEL-5) was 95%, the growth at 0.01 µM [7] was 101% and the GI50 (T47D [8]) was 0.723 µM. The TGI (T47D [8]) was 3.65 µM, the CC50 (T47D [8]) was > 100 µM and the GI50 (MDA-MB-468) was 1.36 µM. The TGI (MDA-MB-468) was 4.1 µM, the CC50 (MDA-MB-468) was > 100 µM and the growth at 1 µM [9] was 109%. The growth at 1 µM [10] was 87%, the GI50 [11] was 1.52 µM and the TGI [11] was 3.24 µM. For the same compound, the CC50 [11] was 6.88 µM, the growth at 0.1 µM (786-0) was 101% and the growth at 1 µM [12] was 90%. It also gave a growth at 1 µM [13] of 57%, a growth at 1 µM (HT-29) of 91% and a growth at 100 µM [14] of -64%. It also gave a growth at 0.1 µM (CCRF-CEM) of 99%, a growth at 0.1 µM (KM12 [15]) of 102% and a growth at 100 µM [16] of 46%. It also gave a growth at 1 µM (T47D [17]) of 43%, a growth at 100 µM (ACHN) of -62% and a growth at 0.01 µM (KM12 [18]) of 103%. It also gave a growth at 1 µM (K562 [19]) of 96%, a growth at 0.01 µM [20] of 100% and a GI50 (A498) of 2.49 µM. The LC50 (concentration killing 50% of cells) (A498) was > 100 µM, the TGI (A498) was 12.2 µM and the growth at 1 µM (M14) was 83%. For the same compound, the TGI (K562 [21]) was > 100 µM, the CC50 (K562 [21]) was > 100 µM and the growth at 0.1 µM [22] was 110%. For the same compound, the growth at 0.1 µM [23] was 106%, the growth at 100 µM (SK-MEL-2) was -18% and the growth at 0.01 µM [24] was 93%. It also gave a growth at 100 µM [25] of -19% and a growth at 100 µM (SK-MEL-28) of 38%.
